Laboratory results taken from patent US12692221B2 (priority 2024, dated 2026).
Converted amounts (≈) assume the structure as drawn.

Legend:
[1] = Aqueous solubility by sequential dilution in water, microscopic inspection; conditions: for aqueous solubility relative to reference compound 2C-iBu: under the same conditions; for solubility: water, thermodynamic from solid
[2] = target: T1, H2 (h) (Homo sapiens, UniProt P25021); experiment: Radioligand binding H2 (h) (antagonist radioligand), [^125I]APT, CHO cells
T1 construct: expressed in transfected cells; host or cells: CHO cells
T1 sequence (P25021 whole entry): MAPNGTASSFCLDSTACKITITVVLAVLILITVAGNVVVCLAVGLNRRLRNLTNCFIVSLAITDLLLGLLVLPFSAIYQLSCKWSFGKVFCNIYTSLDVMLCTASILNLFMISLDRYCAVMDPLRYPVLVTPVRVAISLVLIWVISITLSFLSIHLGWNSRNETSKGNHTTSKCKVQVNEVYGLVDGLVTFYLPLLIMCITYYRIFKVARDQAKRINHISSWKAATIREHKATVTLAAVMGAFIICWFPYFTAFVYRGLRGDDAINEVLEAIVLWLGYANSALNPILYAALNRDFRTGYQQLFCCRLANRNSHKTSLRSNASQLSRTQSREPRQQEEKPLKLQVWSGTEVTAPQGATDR
Experimental: (§1) Methods—Binding Assays: In vitro binding assays were performed using human recombinant receptors expressed in mammalian cell lines. Receptors were expressed in either HEK-293 or CHO cells depending on the target, and assay conditions (radioligand, concentration, nonspecific competitor, temperature, and incubation time) were optimized for each receptor. All assays were conducted in triplicate, and specific binding was quantified by scintillation counting as the detection method for each listed assay.
(§2) Specific binding was expressed as a percentage of control-specific binding, and percent inhibition was calculated using the formula in Ex. 8 above. Half-maximal inhibitory concentrations (IC50) were determined by non-linear regression analysis of the inhibition curves using the Hill equation (see Ex. 8). Inhibition constants (Ki) were calculated using the Cheng-Prusoff equation (see Ex. 8). KD values used in these calculations had been previously established for each receptor under the assay conditions (see Table 6). Data analysis was performed using software developed at Cerep and validated against SigmaPlot 4.0 for Windows.

[3] = target: T2, Acetylcholinesterase (h) (Homo sapiens, UniProt P22303); experiment: Enzyme assay Acetylcholinesterase (h), photometry; format: biochemical
T2 construct: purchased Eurofins Discovery (contract assay)
T2 sequence (P22303 32-614): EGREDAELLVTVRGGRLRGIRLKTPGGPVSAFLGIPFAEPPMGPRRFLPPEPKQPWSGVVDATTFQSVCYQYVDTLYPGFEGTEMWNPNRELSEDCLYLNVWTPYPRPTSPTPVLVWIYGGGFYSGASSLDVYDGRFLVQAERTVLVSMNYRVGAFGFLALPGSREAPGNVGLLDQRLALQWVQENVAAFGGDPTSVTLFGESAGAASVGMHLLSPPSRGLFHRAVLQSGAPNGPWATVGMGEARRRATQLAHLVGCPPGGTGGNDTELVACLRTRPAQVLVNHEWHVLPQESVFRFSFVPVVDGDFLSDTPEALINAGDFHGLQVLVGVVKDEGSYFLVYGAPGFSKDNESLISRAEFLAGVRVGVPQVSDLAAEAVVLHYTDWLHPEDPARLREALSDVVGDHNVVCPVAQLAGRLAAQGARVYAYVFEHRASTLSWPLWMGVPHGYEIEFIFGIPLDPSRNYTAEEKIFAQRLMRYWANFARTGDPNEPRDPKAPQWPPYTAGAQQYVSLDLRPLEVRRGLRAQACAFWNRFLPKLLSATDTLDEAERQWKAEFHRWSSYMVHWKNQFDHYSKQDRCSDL
Experimental: Methods—Enzyme and Uptake Assays: In vitro enzyme and uptake assays were conducted by Eurofins Discovery using human recombinant enzymes expressed in various mammalian and insect cell lines. Enzymatic activity was measured using appropriate substrates or tracers under conditions optimized for each target, as detailed in Table 7. Reactions were incubated at room temperature for a defined duration and terminated according to established protocols. The measured components (either enzymatic products or remaining substrate) were quantified using fluorimetry, photometry, scintillation counting, or LANCE technology, depending on the assay. Assay-specific parameters, including substrate identity, cell line source, incubation time, and detection method, are provided in Table 7.
All measurements were performed in technical replicates to ensure reproducibility and data quality.
Results were expressed both as a percentage of control-specific activity and as percent inhibition of control-specific activity. Percent activity was calculated as (measured specific activity/control specific activity)×100, and percent inhibition as 100−[(measured specific activity/control specific activity)×100], based on values obtained in the presence of test compounds. IC50 and EC50 values, along with Hill coefficients (nH), were determined by nonlinear regression analysis of inhibition or concentration-response curves generated from mean replicate values. Hill curve fitting was performed as previously described using software developed at Cerep and validated against SigmaPlot® 4.0 for Windows® (© 1997 by SPSS Inc.).

[4] = target: T3, dopamine transporter(h) (Homo sapiens, UniProt Q01959); experiment: Radioligand binding DA transporter (h) (antagonist radioligand), [^3H]BTCP, CHO cells
T3 construct: expressed in transfected cells; host or cells: CHO cells
T3 sequence (Q01959 whole entry): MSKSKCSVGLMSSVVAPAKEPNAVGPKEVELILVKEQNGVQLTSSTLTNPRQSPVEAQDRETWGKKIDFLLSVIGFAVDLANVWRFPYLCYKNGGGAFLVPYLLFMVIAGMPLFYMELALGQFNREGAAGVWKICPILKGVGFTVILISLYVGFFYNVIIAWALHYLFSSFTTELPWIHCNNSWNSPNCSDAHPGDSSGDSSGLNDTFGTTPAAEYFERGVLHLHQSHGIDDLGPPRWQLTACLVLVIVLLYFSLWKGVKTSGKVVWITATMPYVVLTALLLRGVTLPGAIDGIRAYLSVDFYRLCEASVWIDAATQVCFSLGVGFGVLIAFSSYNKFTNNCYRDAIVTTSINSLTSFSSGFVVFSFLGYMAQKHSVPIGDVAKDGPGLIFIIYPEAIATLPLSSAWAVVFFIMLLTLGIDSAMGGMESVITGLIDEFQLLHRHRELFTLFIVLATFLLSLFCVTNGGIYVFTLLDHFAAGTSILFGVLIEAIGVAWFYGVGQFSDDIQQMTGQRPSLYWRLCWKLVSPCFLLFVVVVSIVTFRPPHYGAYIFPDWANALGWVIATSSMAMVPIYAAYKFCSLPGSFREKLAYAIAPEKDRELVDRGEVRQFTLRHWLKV
Experimental: as §1, §2

[5] = target: T4, H1 (h) (Homo sapiens, UniProt P35367); experiment: Radioligand binding H1 (h) (antagonist radioligand), [^3H]pyrilamine, HEK-293 cells
T4 construct: expressed in transfected cells; host or cells: HEK-293 cells
T4 sequence (P35367 whole entry): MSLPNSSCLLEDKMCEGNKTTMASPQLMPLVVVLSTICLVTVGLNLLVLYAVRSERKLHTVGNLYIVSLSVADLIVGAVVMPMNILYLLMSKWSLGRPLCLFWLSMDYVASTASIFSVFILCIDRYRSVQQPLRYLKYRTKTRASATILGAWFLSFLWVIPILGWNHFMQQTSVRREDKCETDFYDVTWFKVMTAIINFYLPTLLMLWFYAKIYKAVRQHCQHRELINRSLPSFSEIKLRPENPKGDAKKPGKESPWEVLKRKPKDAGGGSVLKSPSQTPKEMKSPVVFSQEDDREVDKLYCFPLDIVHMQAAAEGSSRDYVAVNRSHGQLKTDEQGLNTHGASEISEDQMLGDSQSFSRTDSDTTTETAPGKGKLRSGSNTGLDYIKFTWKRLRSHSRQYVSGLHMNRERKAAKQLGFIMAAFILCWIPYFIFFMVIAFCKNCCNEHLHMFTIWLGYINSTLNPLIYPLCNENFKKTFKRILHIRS
Experimental: as §1, §2

[6] = target: T5, norepinephrine transporter(h) (Homo sapiens, UniProt P23975); experiment: Radioligand binding NE transporter (h) (antagonist radioligand), [^3H]nisoxetine, CHO cells
T5 construct: expressed in transfected cells; host or cells: CHO cells
T5 sequence (P23975 whole entry): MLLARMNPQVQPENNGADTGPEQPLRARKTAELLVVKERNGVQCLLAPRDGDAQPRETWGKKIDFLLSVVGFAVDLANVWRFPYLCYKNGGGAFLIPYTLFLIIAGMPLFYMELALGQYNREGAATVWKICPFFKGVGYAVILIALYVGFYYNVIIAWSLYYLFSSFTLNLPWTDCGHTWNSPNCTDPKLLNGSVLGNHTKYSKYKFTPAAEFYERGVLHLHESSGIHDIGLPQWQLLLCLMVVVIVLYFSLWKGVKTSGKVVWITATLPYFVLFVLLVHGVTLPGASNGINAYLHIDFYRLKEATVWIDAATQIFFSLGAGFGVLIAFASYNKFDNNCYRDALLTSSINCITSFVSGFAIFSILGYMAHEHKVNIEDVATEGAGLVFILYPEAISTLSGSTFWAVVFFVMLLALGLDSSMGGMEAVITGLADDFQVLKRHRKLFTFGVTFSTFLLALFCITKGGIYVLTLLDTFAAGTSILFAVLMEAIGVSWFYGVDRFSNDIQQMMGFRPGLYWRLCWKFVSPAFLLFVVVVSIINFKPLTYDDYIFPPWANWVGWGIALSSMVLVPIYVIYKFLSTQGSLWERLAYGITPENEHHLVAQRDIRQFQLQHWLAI
Experimental: as §1, §2

[7] = target: T6, N neuronal α4β2 (h) (Homo sapiens, UniProt P17787+P43681); experiment: Radioligand binding N neuronal α4β2 (h) (agonist radioligand), [^3H]cytisine, SH-SY5Y cells; conditions: N neuronal alpha4beta2 (h) (agonist radioligand)
T6 construct: expressed in transfected cells; host or cells: SH-SY5Y cells
T6 sequence (P43681 29-627 limits assumed): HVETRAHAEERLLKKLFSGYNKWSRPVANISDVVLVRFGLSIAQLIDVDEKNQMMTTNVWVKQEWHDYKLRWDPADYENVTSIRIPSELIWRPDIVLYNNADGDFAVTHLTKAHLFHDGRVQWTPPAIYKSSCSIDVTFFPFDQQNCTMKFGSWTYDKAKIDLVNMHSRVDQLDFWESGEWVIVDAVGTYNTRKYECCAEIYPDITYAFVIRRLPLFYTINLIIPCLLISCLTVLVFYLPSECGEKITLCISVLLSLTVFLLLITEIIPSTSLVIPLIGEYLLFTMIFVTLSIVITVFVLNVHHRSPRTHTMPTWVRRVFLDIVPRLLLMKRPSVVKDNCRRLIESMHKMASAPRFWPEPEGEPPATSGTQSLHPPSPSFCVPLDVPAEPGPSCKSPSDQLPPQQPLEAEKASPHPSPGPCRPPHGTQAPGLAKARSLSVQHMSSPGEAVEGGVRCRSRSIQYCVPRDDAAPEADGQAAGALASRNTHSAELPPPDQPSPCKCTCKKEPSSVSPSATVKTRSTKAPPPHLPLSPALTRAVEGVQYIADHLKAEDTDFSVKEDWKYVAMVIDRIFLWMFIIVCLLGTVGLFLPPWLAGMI
T6 sequence (P17787 26-502): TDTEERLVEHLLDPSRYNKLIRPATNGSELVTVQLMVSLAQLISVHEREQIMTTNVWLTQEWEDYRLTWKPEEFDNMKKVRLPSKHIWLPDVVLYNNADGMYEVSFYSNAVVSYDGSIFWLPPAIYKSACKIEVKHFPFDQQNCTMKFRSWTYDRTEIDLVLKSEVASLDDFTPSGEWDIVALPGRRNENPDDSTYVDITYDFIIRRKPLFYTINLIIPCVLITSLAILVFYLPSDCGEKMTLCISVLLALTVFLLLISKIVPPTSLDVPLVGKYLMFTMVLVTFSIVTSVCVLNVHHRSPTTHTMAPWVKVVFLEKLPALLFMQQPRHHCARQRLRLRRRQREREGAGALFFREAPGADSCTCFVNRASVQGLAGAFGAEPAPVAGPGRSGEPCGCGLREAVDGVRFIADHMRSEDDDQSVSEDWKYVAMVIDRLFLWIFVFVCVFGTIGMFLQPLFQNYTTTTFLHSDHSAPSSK

[8] = target: 5-HT2B (Homo sapiens, UniProt P41595); experiment: IP-One HTRF IP-1 accumulation functional assay, 5-HT2B/HEK293; format: cell-based; parameters: host or cells: HEK293
Sequence of 5-HT2B (P41595 whole entry): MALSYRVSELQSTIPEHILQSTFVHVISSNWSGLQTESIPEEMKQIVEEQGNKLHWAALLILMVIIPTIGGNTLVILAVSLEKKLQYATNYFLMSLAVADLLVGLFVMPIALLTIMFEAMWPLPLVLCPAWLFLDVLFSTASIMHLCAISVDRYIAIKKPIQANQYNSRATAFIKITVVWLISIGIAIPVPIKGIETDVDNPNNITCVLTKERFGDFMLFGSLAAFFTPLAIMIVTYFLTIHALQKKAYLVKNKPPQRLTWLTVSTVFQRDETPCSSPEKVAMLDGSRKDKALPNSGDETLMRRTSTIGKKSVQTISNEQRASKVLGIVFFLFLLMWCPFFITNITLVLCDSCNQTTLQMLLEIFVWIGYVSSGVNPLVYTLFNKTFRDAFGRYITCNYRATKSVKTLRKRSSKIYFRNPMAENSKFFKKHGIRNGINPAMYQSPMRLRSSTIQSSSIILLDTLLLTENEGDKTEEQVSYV
Experimental: Methods (5-HT2B IP-One Functional Activity Assays): Intracellular accumulation of IP-1 was measured using an IP-One HTRF) assay kit (Cat. #62IPAPEJ, Cisbio) at WuXi AppTec Co. Ltd. (Hong Kong) Discovery Biology Unit according to their standard protocols. Briefly, 5-HT2B/HEK293 were plated in a 384-well plate and incubated at 37° C. and 5% CO2 overnight. The reference compounds and screening compounds were 3.16-fold serially diluted in 100% DMSO for 10 points using Bravo. 70 nL of compounds were added to the cell plate using Echo555. Incubated for 60 minutes at 37° C. Added 3 μL of IP-1 d2 Reagent working solution and 3 μL of IP-1 Tb Cryptate Antibody working solution to all wells. The plates were incubated for 1 hour at room temperature and read on for fluorescence at 620 nm and 665 nm on an EnVision Multimode Plate Reader (PerkinElmer). The ratio of the acceptor and donor emission signals (665/620) were calculated for each individual well and substituted into the standard curve to obtain the log concentration of IP level. After converting to the antilog base IP-1, the average background control signal was subtracted from each well and values were normalized to the maximal response of 5-HT at 3 μM (100%). % MAX was calculated by taking the average normalized maximal response at the highest concentration tested. Data were analyzed using the four-parameter nonlinear regression curve-fitting function in GraphPad Prism 5 (GraphPad Software, San Diego, CA) to generate potency (EC50) values. Parameter constraint “Top=100” was used in the analysis of 5-HT2B IP-1. Represented plots show normalized IP-1 values versus compound concentrations; the corresponding numerical data are parameter estimates for the concentration-response curve using the 4-parameter nonlinear regression curve-fitting function in GraphPad Prism 10. “Top=100” parameter constraint was not enabled for the represented plot analysis.

COCc1cc(CCN)c(O)cc1CC(C)C [2CiBu-2OH-5MM, 2-(2-aminoethyl)-5-isobutyl-4-(methoxymethyl)phenol]
aqueous solubility relative to reference compound 2C-iBu [1]: significantly higher aqueous solubility
solubility [1]: 110 mM (≈ 26.2 mg/mL)
Mean Percent Inhibition of Control Specific Binding [2]: 12.5%
Mean Percent Inhibition of Control Specific Binding [3]: 4.4%
Mean Percent Inhibition of Control Specific Binding [4]: 22.3%
Mean Percent Inhibition of Control Specific Binding [5]: 5.7%
Mean Percent Inhibition of Control Specific Binding [6]: 17.4%
Mean Percent Inhibition of Control Specific Binding [7]: −10.0%

COCCc1cc(CCN)c(OC)cc1Br [Compound 2CB-5ME, reference compound]
Mean Percent Inhibition of Control Specific Binding [2]: −0.6%
Mean Percent Inhibition of Control Specific Binding [3]: −3.2%
Mean Percent Inhibition of Control Specific Binding [4]: 6.2%
Mean Percent Inhibition of Control Specific Binding [5]: 7.3%
Mean Percent Inhibition of Control Specific Binding [6]: 11.4%
EC50 [8]: 131 nM
Mean Percent Inhibition of Control Specific Binding [7]: 7.4%

COCc1cc(CCN)c(OC)cc1Br [Compound 2CB-5MM, 2-(4-bromo-2-methoxy-5-(methoxymethyl)phenyl)ethan-1-amine]
solubility [1]: 43.5 mM (≈ 11.9 mg/mL)
Mean Percent Inhibition of Control Specific Binding [2]: −14.7%
Mean Percent Inhibition of Control Specific Binding [3]: −3.5%
Mean Percent Inhibition of Control Specific Binding [4]: 10.7%
Mean Percent Inhibition of Control Specific Binding [5]: 7.3%
Mean Percent Inhibition of Control Specific Binding [6]: 0.2%
EC50 [8]: 78.6 nM
Mean Percent Inhibition of Control Specific Binding [7]: −0.1%

COCc1cc(CCN)c(OC)cc1CC(C)C [Compound 2CiBu-5MM, 2-[4-isobutyl-2-methoxy-5-(methoxymethyl)phenyl]ethanamine]
aqueous solubility relative to reference compound 2C-iBu [1]: significantly higher aqueous solubility
aqueous solubility relative to reference compound 2C-iBu ([1]; listed as Compound 8): over ten times more soluble
solubility [1]: 365 mM (≈ 91.7 mg/mL)
Mean Percent Inhibition of Control Specific Binding [2]: −16.5%
Mean Percent Inhibition of Control Specific Binding [3]: 8.0%
Mean Percent Inhibition of Control Specific Binding [4]: 7.7%
Mean Percent Inhibition of Control Specific Binding [5]: 0.6%
Mean Percent Inhibition of Control Specific Binding [6]: −5.4%
EC50 [8]: 825 nM
Mean Percent Inhibition of Control Specific Binding [7]: −2.6%
